The values that follow come from article PMC12951430, “Modular Vinyl Phosphonamidates for Cysteine-Directed Protein Targeting” (Journal of the American Chemical Society, 2026).

One data set has as its target T1, BTK in RAMOS cells (Homo sapiens, UniProt Q06187).
T1 construct: we performed a gel-based ABPP experiment using RAMOS cells; host or cells: RAMOS
Description: Gel-based ABPP of BTK probes in RAMOS cells. The format is cell-based. The following applies: 250 nM, 1 h, 37 °C. An excerpt: Motivated by these promising results, we wanted to extend the scope toward a different class of kinase inhibitors. […] Inspired by these findings, we synthesized a series of VPA probes based on the pyrazolo[3,4-d]-pyrimidine scaffold (8–11, Figure a), each harboring a different aromatic linker. To compare their reactivity and selectivity for BTK, we performed a gel-based ABPP experiment using RAMOS cells. […] In contrast, for all four PA probes, only one intense band was obtained at the same height as BTK. […] Analogously to Afatinib-derived probe 4a, we wanted to investigate whether one stereoisomer might show preferential binding.
(b) Comparison of the in-cell reactivity profiles of BTK probes 8–12 in RAMOS cells (250 nM, 1 h, 37 °C) analyzed by gel-based ABPP. […]
Fluorescence was monitored over 4 h at 30 °C every 60 seconds (λex = 360 nm and λem = 492 nm).
Background‑subtracted fluorescence intensity (RFU) was plotted against time (s), and data were fitted to a single‑phase association model: […]
4.7 In-cell protein labeling and in -gel fluorescence analysis […]
Afterwards, the precipitate was redissolved in 40 µl 8 M urea (100 mM Tris, pH 8), 8 µl Laemmli buffer were added and the samples were denatured at 95 °C for 5 minutes. Proteins were seperated via SDS - PAGE (12% or 4-20% acrylamide gels) and analyzed on a Gel Doc XR+ (Bio-Rad, USA). […]

The conditions of data set [1]: unprotected lysine 10 equiv, 5 days, pH 7.4 and pH 8.5, room temperature.
Description: To this end, unprotected lysine (10 equiv) was incubated with 1a for 5 days (pH 7.4 and pH 8.5, room temperature).
The assay was performed analogously to glutathion reactivity using L -lysine. In addition to pH 7.4
The reaction was monitored for a total
of 5 days and aliquotes were taken at indicated timepoints and analyzed via UPLC -UV/MS.
For another data set, the system named is RAMOS cell lysate. Description: Gel-based ABPP of alkyne probes in RAMOS cell lysate. On the set-up: species or system human. The settings on record: RAMOS cell lysate 1 mg/mL, 10 and 100 μM, 1 h. An excerpt:
Greater reactivity yields a higher isoDTB ratio. Ratios ≥ 4 (dashed line) are considered liganded.
Nonetheless, since the formation of the glutathione conjugate was clearly notable, we wanted to investigate the reactivity of 1a with a more diverse set of thiols. Therefore, we examined all three electrophilic groups for their ability to label cysteines in whole-cell lysates. First, alkyne-functionalized reagents (1b–3b, for structures, see Scheme S1) were synthesized to allow for gel-based activity-based protein profiling (ABPP). […] Since all compounds share the same scaffold and differ only by their reactive functional group, we anticipate that any differences in labeling intensity should primarily stem from differences in electrophilicity. […] CAPA reporter cells were prepared by transiently transfecting HEK293T with a plasmid enabling the cytoplasmic expression of the Halotag protein, and concentration-dependent cell permeability was assessed. […]
Cells were harvested by centrifugation, washed trice with ice cold PBS (Ph 7.4) and stored at -70°C until lysis. […] Lysates were cleared by centrifugation (15’000 rcf) and the proteinconcentration was determined via BCA assay (Pierce BCA Protein Assay Kit, Thermo Fisher Scientific) according to the vendors instructions. […]

For another data set, the target named is wild-type EGFR (Homo sapiens, UniProt P00533). Description: biochemical. The settings on record: in vitro kinase assay.
The next data set has as its target T2, wt EGFR (Homo sapiens, UniProt P00533).
T2 construct: purchased Sino Biological
Description: biochemical. The format is biochemical.

In a further data set the test system is RAMOS cells. Description: Streptavidin pull-down with BTK probes in RAMOS cells (LFQ). The format is cell-based, human. The settings on record: 10 μM probe, log2-fold change >2.5, p <0.01. As for the experimental part:
(b) Comparison of the in-cell reactivity profiles of BTK probes 8–12 in RAMOS cells (250 nM, 1 h, 37 °C) analyzed by gel-based ABPP. (c) Superposition of the two stereoisomers of 9 covalently docked onto the crystal structure of BTK (PDB: 5P9J).
To verify the identity of the protein(s) labeled by our best-performing probe 9, we performed in-cell labeling followed by streptavidin pull-down coupled to LC-MS/MS analysis.
4.8 In-cell protein labeling and s ample preparation for proteomic pull-down Cells were cultured, treated and lysed as described in 4.4. Lysates (approx. 200 μg of protein each) […]
Afterwards, the samples we re processed according to a procedure published by Becker et al. 10: A total of 50 μl of mixed hydrophobic and hydrophilic carboxylate -coated magnetic beads (1:1, prewashed with PBS; Seramag™, Cytavia) was added to the click reaction mixture followed by 600 μl of absolute ethanol to precipitate the proteins. Beads were washed thrice with of 80% ethanol and proteins were eluted by two sequential washes of 0.2% SDS in PBS. […]
The obtained raw-data was analyzed using FragPipe (v20 to 21) using the built-in LFQ-MBR workflow using the whole human proteome as search space and applying the following MSFragger11 settings: […]

Several values for one entry are separate records, joined by “and”; a condition that tells them apart may be missing. Equal values may be shown once.

T2 sequence (P00533 25-1210): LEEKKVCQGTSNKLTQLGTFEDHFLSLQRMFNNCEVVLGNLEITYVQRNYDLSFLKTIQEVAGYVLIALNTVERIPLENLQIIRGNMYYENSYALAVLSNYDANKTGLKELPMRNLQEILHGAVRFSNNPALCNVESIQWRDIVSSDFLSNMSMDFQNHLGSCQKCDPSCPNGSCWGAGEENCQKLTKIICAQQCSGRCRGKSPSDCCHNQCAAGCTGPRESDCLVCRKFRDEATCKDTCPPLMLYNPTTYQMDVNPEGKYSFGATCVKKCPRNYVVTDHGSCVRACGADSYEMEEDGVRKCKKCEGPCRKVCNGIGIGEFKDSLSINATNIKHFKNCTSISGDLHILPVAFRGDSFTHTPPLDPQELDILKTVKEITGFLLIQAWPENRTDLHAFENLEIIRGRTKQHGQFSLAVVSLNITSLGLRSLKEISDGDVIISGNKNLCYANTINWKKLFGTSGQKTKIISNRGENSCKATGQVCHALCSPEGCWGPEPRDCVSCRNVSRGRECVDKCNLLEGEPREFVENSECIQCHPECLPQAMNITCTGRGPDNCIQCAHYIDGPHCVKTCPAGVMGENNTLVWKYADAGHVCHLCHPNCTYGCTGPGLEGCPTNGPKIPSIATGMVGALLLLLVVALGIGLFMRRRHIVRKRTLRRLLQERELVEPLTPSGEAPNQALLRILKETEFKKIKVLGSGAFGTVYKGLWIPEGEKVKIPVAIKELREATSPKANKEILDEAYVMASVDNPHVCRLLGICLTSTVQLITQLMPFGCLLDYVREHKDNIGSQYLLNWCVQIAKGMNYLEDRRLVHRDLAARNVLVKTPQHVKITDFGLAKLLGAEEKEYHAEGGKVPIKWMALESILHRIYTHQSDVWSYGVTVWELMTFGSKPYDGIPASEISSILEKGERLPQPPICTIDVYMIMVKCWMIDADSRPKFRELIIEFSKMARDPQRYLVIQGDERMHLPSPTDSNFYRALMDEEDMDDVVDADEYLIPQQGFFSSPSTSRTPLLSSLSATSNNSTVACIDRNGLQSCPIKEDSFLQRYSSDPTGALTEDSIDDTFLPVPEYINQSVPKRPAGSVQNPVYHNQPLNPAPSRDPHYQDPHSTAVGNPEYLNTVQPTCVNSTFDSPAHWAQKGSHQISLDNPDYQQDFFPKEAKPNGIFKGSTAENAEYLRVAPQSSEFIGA
T1 sequence (Q06187 whole entry): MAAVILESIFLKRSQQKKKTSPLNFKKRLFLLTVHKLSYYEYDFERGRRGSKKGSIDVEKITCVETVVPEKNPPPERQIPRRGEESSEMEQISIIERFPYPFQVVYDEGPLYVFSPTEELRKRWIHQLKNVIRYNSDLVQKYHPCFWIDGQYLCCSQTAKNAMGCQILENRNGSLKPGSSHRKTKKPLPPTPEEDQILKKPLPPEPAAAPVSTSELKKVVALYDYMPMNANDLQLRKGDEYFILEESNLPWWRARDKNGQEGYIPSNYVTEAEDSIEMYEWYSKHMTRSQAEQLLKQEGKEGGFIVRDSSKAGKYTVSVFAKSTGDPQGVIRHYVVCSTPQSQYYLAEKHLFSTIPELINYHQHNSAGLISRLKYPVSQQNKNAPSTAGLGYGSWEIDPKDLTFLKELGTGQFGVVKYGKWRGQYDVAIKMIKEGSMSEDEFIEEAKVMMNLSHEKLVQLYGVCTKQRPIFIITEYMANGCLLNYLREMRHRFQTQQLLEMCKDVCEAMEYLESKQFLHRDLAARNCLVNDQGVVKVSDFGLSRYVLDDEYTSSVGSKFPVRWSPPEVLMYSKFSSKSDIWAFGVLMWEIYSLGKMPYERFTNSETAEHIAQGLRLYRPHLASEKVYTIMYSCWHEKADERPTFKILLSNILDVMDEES
wild-type EGFR, sequence (P00533 25-1210): as the sequence (P00533 25-1210) above

For `C#CCCOP(=O)(C=C)Nc1ccccc1Cn1nc(-c2ccc(Oc3ccccc3)cc2)c2c(N)ncnc21` (stereo not drawn) [compound 9], at BTK in RAMOS cells, the “in-cell reactivity profile (gel bands)” value is “most intense labeling”.

With `C=CP(=O)(Nc1ccccc1)OCC` (stereo not drawn) [1a], in data set [1], the “reactivity toward L-lysine / buffer stability” value is recorded as “no reaction or degradation products were detected”.

Turning to `C#Cc1ccc(NC(=O)CCl)cc1` [3b], in the data set with RAMOS cell lysate, the “fluorescent labeling signal” value was “most intense fluorescent signal”.

The IC50 is the concentration at which inhibition is half-maximal. Read a low IC50 as greater potency in that assay. For orientation: Ki means a measure of affinity in units of concentration, obtained from inhibition or displacement. As to `C=CP(=O)(Nc1cc2c(Nc3ccc(F)c(Cl)c3)ncnc2cc1O[C@H]1CCOC1)OCC` (stereo partly drawn) [4a], the IC50 at wild-type EGFR was 0.68 nM and 0.67 nM. In addition, on wt EGFR (4a 2–50 nM), the Ki was 2.43 nM and the k inact is 0.24 × 10^–3 s^–1. Moreover, the “k inact/K I ratio” value on wt EGFR (direct comparison) is reported as 97 × 10^3 M^–1 s^–1.

Turning to `C#Cc1cccc(Oc2ccc(-c3nn(C4CCCN(C(=O)C=C)C4)c4ncnc(N)c34)cc2)c1` (stereo not drawn) [compound 12, PF-06658607, reference compound], the “in-cell reactivity profile (gel bands)” value at BTK in RAMOS cells was “additional prominent off-target band around 60 kDa”. The molecule further had an off-targets significantly enriched in the data set with RAMOS cells of 73.
